Assay: Drug release through lamb buccal mucosa, flow-through Franz diffusion cell
Details: from CARBOPOL ETD 2020 NF (1%) solution containing triamcinolone and phenol
Experimental: Drug release through lamb buccal mucosa was evaluated via a flow-through Franz diffusion cell. Lamb buccal mucosa was clamped into the cell and the receptor chamber was filled with 5 mL of phosphate buffered solution (PBS). CARBOPOL® ETD 2020 NF (1%) solution containing triamcinolone and phenol was applied to the donor chamber. 0.5 mL of PBS was withdrawn from the receptor chamber every 30 minutes and replaced with fresh PBS over the course of 7 hours. Each sample was placed in a cuvette for testing via UV-Vis spectrophotometry. The sample was compared to a set of calibration standards of known concentrations for triamcinolone and phenol, independently. […] The peaks at 225 nm and 270 nm correspond to phenol, and the peak at 240 corresponds with triamcinolone.

Oc1ccccc1 [Phenol, phenol]
Phenol diffusion through the mucosa (UV-Vis, based on calibration curve, over 7 hours): less than 0.025%
amounts released over time and diffused through the lamb buccal mucosa (sampled every 30 minutes over 7 hours): Increasing amounts
